Data as given in patent publication US20250034129A1, “CRYSTALLINE FORMS OF (6S,7S)-6-FLUORO-7-(2-FLUORO-5-METHYLPHENYL)-3-(TETRAHYDRO-2H-PYRAN-4-YL)-5,6,7,8-TETRAHYDROPYRIDO[2,3-d]PYRIMIDINE-2,4(1H,3H)-DIONE” (MYOKARDIA, INC., priority 2023, published 2025).

Experiments:
Format in all cases: physicochemical
[1] = Competitive slurry experiments in ethanol
[2] = Slurry conversion of Form A in anhydrous ethanol; conditions: 60° C., 24 hours
Description: 3 g of Form A was slurried in 90 mL anhydrous ethanol at 60° C. for 24 hours.

[3] = Vapor sorption analysis (TA Instrument VTI-SA+)
Description: The vapor sorption experiments for Form B were performed using a TA Instrument VTI-SA+ Vapor Sorption Analyzer. Sample (˜10 mg) was placed in a previously cleaned and tarred platinum pan then loaded into the instrument chamber. Sample was dried at 60° C. until the loss rate of 0.005 wt %/min was obtained for 10 minutes. The sample was then held isothermally at 25° C. while the % RH of the system was stepped between 4, 5, 15, 25, 35, 45, 55, 65, 75, 85, 95, 85, 75, 65, 55, 45, 35, 25, 15, 5, 4% RH. Equilibration criteria was +/−0.01 wt % for 35 min with a maximum equilibration time of 600 min at each step.

[4] = Stability study of Form B (thermal and humidity treatments; HPLC purity, XRPD form)
Description: The stability study of Form B (before milling) was carried out at 80° C. for two weeks and at 40° C./75% RH for one month. Purity was determined by HPLC and stability was determined by XRPD. […] The stability of milled Form B was carried out as well under the same conditions. […] A purity decrease of 0.8% was detected for milled Form B after being treated at 80° C. for […].

[5] = Solid state stability in bio-relevant media; conditions: pH 1 HCl 0.1 M, pH 3.05 citrate 50 mM, pH 7.4 phosphate 50 mM, Fassif pH 6.5, Fessif pH 5.0, 37° C., 200 rpm
Description: Form B was added to bio-relevant media (pH 1 HCl 0.1 M; pH 3.05 citrate 50 mM; pH 7.4 phosphate 50 mM; Fassif pH 6.5; Fessif pH 5.0) and solid state stability in the media was determined. Procedures are described in more detail as follows:
pH 1 HCl 0.1M: […] HCl was diluted to 100 mL with water. pH 1.02
pH 3.05 citrate 50 mM: 82 mL of 0.1 M citric acid and 18 mL of 0.1 M sodium citrate were mixed together. pH=3.07.
pH 7.4 phosphate 50 mM: 50 mL of 0.2 M KH2PO4 and 39.1 mL of 0.2 M NaOH were dissolved and diluted to 200 mL with water. pH 7.39.
Fassif pH 6.5: 23.4 mg of NaOH, 224.7 mg of NaH2PO4·2H2O and 304.3 mg of NaCl were dissolved and diluted to 50 mL with water. 33.6 mg of SIF powder was dissolved in 15 mL of FaSSIF buffer solution. The solution was kept stirring and equilibrated at ambient condition with light protection for 2 hours. pH=6.37.
Fessif pH 5.0: 202.6 mg of NaOH, 432.7 mg of acetic acid, and 591.3 mg of NaCl were dissolved and diluted to 50 mL with water. pH of the solution was 4.99. 168 mg of SIF powder was dissolved in 15 mL of FeSSIF buffer solution. The solution was kept stirring and equilibrated at ambient condition with light protection for 2 hours. pH=4.94.
30-50 mg of Form B was weighed into 12 mL sample vials and then 3 mL of test media was added respectively. The suspensions were kept shaking at 200 rpm under 37° C. for 24 hours. […]

relative stability versus Form A in competitive slurry ([1]; 10° C. and 60° C.): more stable compared to Form A
relative stability versus Form C in competitive slurry ([1]; 10° C. and 60° C.): more stable compared to Form C
relative stability versus Form E in competitive slurry ([1]; 22.5° C. and 60° C.): more stable compared to Form E
thermodynamic stability compared to Form A, from conversion of Form A to Form B [2]: superior thermodynamic stability
hygroscopicity by vapor sorption analysis [3]: non-hygroscopic
weight percent gain as measured by vapor sorption analyzer ([3]; up to 95% RH, 25° C.): less than 0.05%
purity by HPLC after stability test ([4]; before milling, 40° C./75% RH for one month): 99.9%
purity by HPLC after stability test ([4]; before milling, 80° C. for two weeks): 99.9%
crystal form by XRPD after stability test ([4]; before milling, 80° C. for two weeks and 40° C./75% RH for one month): remained unchanged
crystal form by XRPD after thermal and humidity treatments ([4]; milled, 40° C./75% RH and 80° C.): remains unchanged
degradation after stability test ([4]; milled, 40° C./75% RH for four weeks): did not show any degradation
purity decrease after stability test ([4]; milled, 80° C. for four weeks): 0.8%
solid form by XRPD after 24 hours in bio-relevant media [5]: remained as Form B
SMILES: Cc1ccc(F)c([C@@H]2Nc3[nH]c(=O)n(C4CCOCC4)c(=O)c3C[C@@H]2F)c1 [Form B, (6S,7S)-6-fluoro-7-(2-fluoro-5-methylphenyl)-3-(tetrahydro-2H-pyran-4-yl)-5,6,7,8-tetrahydropyrido[2,3-d]pyrimidine-2,4(1H,3H)-dione]
overall thermodynamic stability ranking compared to Forms A, C and E ([1]; temperature ranges covered in the experiments): thermodynamically most stable anhydrous form
